From patent US20120107835A1, “METHOD FOR DETECTING BETA-AMYLOID USING AMINO ACID DIMERS” (E[…] TELECOMM[…] INSTITUTE, priority 2010, published 2012)
No end group written: not given here. *: point of attachment. Biotin = O=C1N[C@H]2[C@H](CS[C@H]2CCCCC(=O)*)N1

Test system: causative β-amyloid (Aβ42)
Test: Sandwich ELISA detection of β-amyloid using biotinylated amino acid dimers instead of secondary antibody (absorbance at 450 nm)
Assay type: binding
Details: Aβ40 vs Aβ42, dimer 100 μM, FIG. 2
Method: Detection of β-amyloid was carried out using the biotinylated amino acid dimers prepared in Example 1, as follows.
Normal β-amyloid (Aβ40) and causative β-amyloid (Aβ42) were obtained from rPeptide (at Bogart, Ga., USA), and monoclonal antibodies specific for the β-amyloids(primary antibodies) were obtained from Covance (France). Each of the primary antibodies was mixed with sodium carbonate (pH 9.2) and the solution was added to a 96-well microplate for coating the wells (high-affinity F series, available from
NUNC, and then the microplate was washed with PBS or distilled water.
Meanwhile, each β-amyloid was dissolved in a sodium carbonate buffer (pH 9.4, Pierce) to a concentration of 1.0 mg/mL. For dilution, 100 μL of the β-amyloid solution was mixed with 9,900 μL of PBS. Each 200 μL of the resulting β-amyloid solution was dispensed into the wells of the 96-well microplate, and incubated for 4-hr at a room temperature so that β-amyloid binds to the primary antibody. Then, the plate was washed five times with PBS buffer (Pierce, at Rockford, Ill., USA), and 100 μL of the biotinylated amino acid dimer solution (amino acid dimer, dissolved in PBS to a concentration of 100 μM) was added to allow reaction for 1 hr. Each well was washed five times with PBS buffer, and 200 μL of streptavidin-HRP solution (diluted by 1:10,000, Pierce, at Rockford, Ill., USA) was added to allow reaction over 1 hr. After the reaction was completed, the plate was washed three times with PBS buffer, 100 μL of TMB substrate solution (KPL, USA) was added to allow reaction for 10-minute under a dark condition. Then, 50 μL of 15% hydrochloric acid was added to stop the reaction, and the absorbance of the reaction mixture at 450 nm was measured using a microplate reader (Bio-RAD, iMark).

Substance	difference of absorbance between Aβ40 and Aβ42
Biotin-Cys-Ser [Dimer 13]	very significant
Biotin-Arg-Ile [Dimer 3]	very significant
Biotin-Ala-Arg [Dimer 1]	very significant
Biotin-Arg-Leu [Dimer 5]	very significant
